# “And” between values parts separate entries of the source, which are not always exact repeats. Identical values can stand only once.
# Key:
# glucocorticoid receptor [1] = molecular target: T1, glucocorticoid receptor (Homo sapiens, UniProt P04150); experiment: GR radiolabeled competitive binding assay (IM-9 cell cytosol, [3H]dexamethasone; Cerep); details: for nH (Hill coefficient): IM-9 cell cytosol competition curves
# T1 sequence (P04150 524-777 limits assumed): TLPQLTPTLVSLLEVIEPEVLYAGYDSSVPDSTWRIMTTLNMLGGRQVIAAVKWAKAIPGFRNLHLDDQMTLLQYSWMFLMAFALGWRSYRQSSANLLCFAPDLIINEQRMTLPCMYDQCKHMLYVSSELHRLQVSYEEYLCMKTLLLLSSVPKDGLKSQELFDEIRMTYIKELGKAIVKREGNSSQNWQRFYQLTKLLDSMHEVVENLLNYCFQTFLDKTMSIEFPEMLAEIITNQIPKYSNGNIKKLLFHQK
# Protocol: GR binding affinity assay was performed at Cerep Inc. (Celle l'Evescault, France), according to an established method. […] Nonspecific binding is determined in the presence of 10 μM triamcinolone. Following incubation, the samples are filtered rapidly under vacuum through glass fiber filters (GF/B, Packard) presoaked with 0.3% Poly(ethyleneimine) and rinsed several times with ice-cold 50 mM Tris-HCl using a 96-sample cell harvester (Unifilter, Packard). The filters are dried and counted for radioactivity in a scintillation counter (Topcount, Packard) using a scintillation cocktail (Microscint 0, Packard). The results are expressed as percent inhibition of the control radioligand specific binding. The IC50 values (concentration causing half-maximal inhibition of control specific binding) and Hill coefficients (nH) were determined by non-linear regression analysis of the competition curves generated with mean replicate values using Hill equation curve fitting (Y = D + [(A - D)/(1 + (C/C50)^nH)], where Y = specific binding, D = minimum specific binding, A = maximum specific binding, C = compound concentration, C50 = IC50, and nH = slope factor). […] The inhibition constants (Ki) were calculated using the Cheng Prusoff equation (Ki = IC50/(1+(L/KD)), where L = concentration of radioligand in the assay, and KD = affinity of the radioligand for the receptor). […] The GR binding assay was performed in duplicate.
# TM 86 cells = experiment: Microarray gene expression profiling in TM 86 cells (with IPA and GoMiner analysis); type: cell-based, human; details: 1 μM, 24 hr
# Source text: (§1) Cells were maintained in low glucose Dulbecco's Modified Eagle Medium (DMEM, Invitrogen, Carlsbad, CA) supplemented with 10% (vol/vol) FBS (American Type Culture Collection, Manassas, VA), 1% (vol/vol) penicillin and streptomycin (Invitrogen). Cells from the human HeLa cervical adenocarcinoma cell line (American Type Culture Collection) were maintained in α-MEM medium supplemented with 10% (v/v) FBS, 1% (v/v) penicillin and streptomycin. All cells were used within passages 3 to 6. […] Cells were maintained for one week with medium renewal every other day. The day before the experiment, confluent TM were washed once with phosphate-buffered saline (PBS) and then the cells were maintained in 1% FBS-containing medium with antibiotics. […] Control cells were treated with 0.1%(v/v) dimethylsulfoxide (DMSO). At the end of GC treatment, supernatant was discarded and the cell monolayer was kept frozen at -80°C for subsequent total RNA extraction and gene expression profiling. […] Briefly, RNA was isolated from flash frozen cell culture plates using RNeasy Mini columns (Qiagen, Valencia, CA) according to the manufacturer's protocol. There were three biological replicates per treatment condition. The quantity and purity of the extracted RNA was evaluated using a NanoDrop ND-1000 spectrophotometer (Nanodrop Technologies, Wilmington, DE, USA) and its integrity measured using an Agilent Bioanalyzer. […] The amount and quality of the fluorescently labeled cRNA was assessed using a NanoDrop ND-1000 spectrophotometer and an Agilent Bioanalyzer. An equal amount of Cy3-labeled cRNA (1.6 μg) was hybridized to the Agilent Human Whole Genome Oligo Microarray (Agilent Technologies) for 17 hours, prior to washing and scanning. Data were extracted from scanned images using Agilent's Feature Extraction Software (Agilent Technologies) using default settings. […] The full complement of microarray data has been deposited in the NIH/NLM Gene Expression Omnibus (GEO accession # GSE16643). […] The lists of differentially expressed genes were also applied to global functional, network and canonical pathway analyses using Ingenuity Pathway Analysis (Ingenuity® Systems, Redwood City, CA).
# TM 93 cells = experiment: Microarray gene expression profiling in TM 93 cells (with IPA and GoMiner analysis); type: cell-based, human; details: 1 μM, 24 hr
# Source text: as §1
# glucocorticoid receptor [2] = molecular target: T1, glucocorticoid receptor; experiment: GeneBLAzer beta-lactamase reporter gene assay, GR transactivation in MMTV-bla HeLa CellSensor cells; type: cell-based; details: 5 hr treatment
# Protocol: GR transactivation activity was assessed by the Invitrogen SelectScreen Profiling Service (Madison, WI), using Invitrogen GeneBLAzer beta-lactamase reporter gene technology. Profiling was performed using human HeLa cells stably transfected with an expression construct containing β-lactamase cDNA under the control of the MMTV response element previously identified as a GR response element (MMTV-bla HeLa CellSensor®). The MMTV-bla HeLa cells were plated in 384-well plates in 32 μl assay medium (OPTIMEM + 1% charcoal/dextran stripped FBS) at a density of 10,000 cells/well and incubated overnight. […] The β-lactamase activity of each sample was determined by adding 8 μl of 6-fold concentrated LiveBLAzer™ substrate solution to the samples followed by two hours of incubation at room temperature in a Tecan Safire2 plate reader using the appropriate LiveBLAzer™ filter settings. GC treatment was performed in 15-point dose response using a three-fold dilution series starting with a maximum compound concentration of 10 μM. Each data point represents a triplicate sample (n = 3). Assay reproducibility was determined by calculating Z' values for untreated vs. maximum stimulation. The GeneBLAzer assay was performed twice.
compound,measurement,setting,value
"C[C@@H]1C[C@H]2[C@@H]3CCC4=CC(=O)C=C[C@]4(C)[C@@]3(F)[C@@H](O)C[C@]2(C)[C@@]1(O)C(=O)CO [DEX, dexamethasone]",nH (Hill coefficient),glucocorticoid receptor [1],1.06 ± 0.18
same,function of significantly regulated transcripts (Ingenuity Pathway Analysis),TM 86 cells,RNA post-transcriptional modifications
same,number of genes uniquely regulated by each GC,TM 86 cells,1761
same,significantly regulated biological process (GoMiner gene ontology),TM 86 cells,cellular component organization and biogenesis
same,significantly regulated network (Ingenuity Pathway Analysis),TM 86 cells,a network centered around the RNA binding protein S1 or RNPS1
same,function of significantly regulated genes (Ingenuity Pathway Analysis),TM 93 cells,histone methylation
same,number of genes uniquely regulated by each GC,TM 93 cells,745
same,significantly regulated biological process (GoMiner gene ontology),TM 93 cells,membrane lipid metabolic process
same,significantly regulated network (Ingenuity Pathway Analysis),TM 93 cells,a network centered around a histone methyltransferase known as suppressor of zeste 12 homolog or SUZ12
"CC1(C)O[C@@H]2C[C@H]3[C@@H]4C[C@H](F)C5=CC(=O)C=C[C@]5(C)[C@@]4(F)[C@@H](O)C[C@]3(C)[C@]2(C(=O)CO)O1 [FA, fluocinolone acetonide]",nH (Hill coefficient),glucocorticoid receptor [1],1.10 ± 0.00
same,Ki,"glucocorticoid receptor [1]; IM-9 cell cytosol, calculated by Cheng Prusoff equation",0.97 ± 0.17 nM
same,IC50,glucocorticoid receptor [1]; read-out: GR binding affinity IC50,2 ± 0.42 nM
same,EC50,glucocorticoid receptor [2],0.7 nM and 0.67 nM
same,function of significantly regulated transcripts (Ingenuity Pathway Analysis),TM 86 cells,lipid metabolism
same,number of genes uniquely regulated by each GC,TM 86 cells,693
same,significantly regulated biological process (GoMiner gene ontology),TM 86 cells,actin filament-based process
same,significantly regulated network (Ingenuity Pathway Analysis),TM 86 cells,a GR-dependent network
same,ANGPTL4 FC (fold change),TM 86 cells; microarray,9.6 fold
same,ANGPTL7 FC (fold change),TM 86 cells; microarray,16.0 fold
same,AQP1 FC (fold change),TM 86 cells; microarray,-4.4 fold
same,CCRL1 FC (fold change),TM 86 cells; microarray,-4.7 fold
same,CXADR FC (fold change),TM 86 cells; microarray,-3.4 fold
same,FKBP5 FC (fold change),TM 86 cells; microarray,13.8 fold
same,GABRB1 FC (fold change),TM 86 cells; microarray,-4.0 fold
same,ITGA10 FC (fold change),TM 86 cells; microarray,25.1 fold
same,KAL1 FC (fold change),TM 86 cells; microarray,-5.6 fold
same,KCNB1 FC (fold change),TM 86 cells; microarray,20.1 fold
same,KIF4A FC (fold change),TM 86 cells; microarray,-3.6 fold
same,KLF15 FC (fold change),TM 86 cells; microarray,11.5 fold
same,LSP1 FC (fold change),TM 86 cells; microarray,14.9 fold
same,MXRA5 FC (fold change),TM 86 cells; microarray,-4.3 fold
same,MYOC FC (fold change),TM 86 cells; microarray,7.4 fold
same,PCDH19 FC (fold change),TM 86 cells; microarray,-5.1 fold
same,PER3 FC (fold change),TM 86 cells; microarray,-5.3 fold
same,PF4 FC (fold change),TM 86 cells; microarray,3.1 fold and 3.2 fold
same,RASL11B FC (fold change),TM 86 cells; microarray,-4.9 fold
same,RGC32 FC (fold change),TM 86 cells; microarray,>100 fold
same,SAA1 FC (fold change),TM 86 cells; microarray,34.6 fold
same,ZBTB16 FC (fold change),TM 86 cells; microarray,8.7 fold
same,function of significantly regulated genes (Ingenuity Pathway Analysis),TM 93 cells,cell cycle
same,number of genes uniquely regulated by each GC,TM 93 cells,2294
same,significantly regulated biological process (GoMiner gene ontology),TM 93 cells,biopolymer metabolic process
same,significantly regulated network (Ingenuity Pathway Analysis),TM 93 cells,JARID1B-based network
same,ANGPTL4 FC (fold change),TM 93 cells; microarray,9.1 fold
same,ANGPTL7 FC (fold change),TM 93 cells; microarray,13.0 fold
same,AQP1 FC (fold change),TM 93 cells; microarray,-3.2 fold
same,CCRL1 FC (fold change),TM 93 cells; microarray,-2.5 fold
same,CXADR FC (fold change),TM 93 cells; microarray,-1.8 fold
same,ENST00000344214 FC (fold change),TM 93 cells; microarray,-6.3 fold
same,FKBP5 FC (fold change),TM 93 cells; microarray,6.8 fold
same,GABRB1 FC (fold change),TM 93 cells; microarray,-2.2 fold
same,ITGA10 FC (fold change),TM 93 cells; microarray,9.1 fold
same,KAL1 FC (fold change),TM 93 cells; microarray,-3.0 fold
same,KCNB1 FC (fold change),TM 93 cells; microarray,5.2 fold
same,KIF4A FC (fold change),TM 93 cells; microarray,-2.2 fold
same,KLF15 FC (fold change),TM 93 cells; microarray,3.6 fold
same,LSP1 FC (fold change),TM 93 cells; microarray,18.0 fold
same,MXRA5 FC (fold change),TM 93 cells; microarray,-4.5 fold
same,MYOC FC (fold change),TM 93 cells; microarray,2.7 fold
same,OCA2 FC (fold change),TM 93 cells; microarray,98.0 fold
same,PCDH19 FC (fold change),TM 93 cells; microarray,-3.9 fold
same,PER3 FC (fold change),TM 93 cells; microarray,-3.6 fold
same,PF4 FC (fold change),TM 93 cells; microarray,6.5 fold
same,RGC32 FC (fold change),TM 93 cells; microarray,11.0 fold
same,SAA1 FC (fold change),TM 93 cells; microarray,8.3 fold
same,ZBTB16 FC (fold change),TM 93 cells; microarray,4.9 fold

# — publication PMC2749862, “Glucocorticoids with different chemical structures but similar glucocorticoid receptor potency regulate subsets of common and unique genes in human trabecular meshwork cells” (BMC Medical Genomics, 2009)
